Experimental data: PMC10600247, “Impact of C- and N-terminal protection on the stability, metal chelation and antimicrobial properties of calcitermin” (Scientific Reports, 2023)
Residues, ends and D or L forms follow the SMILES beside them.

What was measured:
[1] = T = 298 K, I = 0.1 M (KCl), charges omitted
Source text: Stability constants for proton and metal complexes were obtained from pH-metric titration curves registered at T = 298 K and ionic strength 0.1 M (KCl). The potentiometric apparatus was previously described. Solutions were titrated with 0.1 M carbonate-free KOH. The electrode was daily calibrated for hydrogen ion concentration by titrating HNO3 with the standard base solution, under the same experimental conditions as above. The asymmetry potential and the slope of the electrode couple were computed by means of […][41] and Glee[42] programs. The purities and exact concentrations of the ligand solutions were determined by the Gran method. The […][44] program was employed for the overall formation constant (β) calculations, referred to the following equilibrium equation: pM + qL + rH ⇆ MpLqHr (charges omitted; p is 0 in the case of ligand protonation; r can be negative). The computed standard deviations (referring to random errors only) were given by the program itself and are shown in parentheses as uncertainties on the last significant figure. Hydrolysis constants for metal ions were taken from the literature[45],[46]. The distribution and competition diagrams were computed using the HYSS program.
1. Wild-type calcitermin: thermodynamic data
Wild-type calcitermin (WT) has been previously investigated by our research group in aqueous solutions and ionic medium NaClO4.1 For the sake of comparison, potentiometric studies of WT and its copper and zinc complexes have been performed in a different ionic medium (KCl 0.1 M). The study of the speciation under different experimental conditions, changing ionic medium and metal-ligand ratio, is essential to comprehensively describe the thermodynamics of calcitermin, which is usually found in multicomponent media like biological fluids.
Table S1. Equilibrium constants for protonation of WT and its Cu2+ and Zn2+ complex formation at T = 298 K and I = 0.1 M (KCl). Values in parentheses are standard deviations on the last significant figure.

[2] = test system: E. coli (ATCC 25922); test: In vitro anti-E. coli CFU assay; format: cell-based, Escherichia coli; details: pH 5.4; for mean CFU number ± S.D.: per 0.1 mL
Procedure: All microbes were grown at 37 °C in Tryptic Soy Broth (TSB; Biolife, Milan, Italy) or Tryptic Soy Agar plates (TSA, Biolife, Milan, Italy). Peptides were tested at a final concentration C = 0.128, 0.064, 0.032 mg/mL, in the presence or absence of ZnCl2 or CuCl2, at a M:L molar ratio 0.9:1. Briefly, all the microbes were expanded in TSB at 37 °C under agitation for 12 h and then sub-cultured by 1:10 dilution in TSB under the same conditions until reaching OD600nm = 0.3–0.4, as measured by spectrophotometric reading using a GENESYS 10S UV–Vis spectrophotometer (Thermo Scientific, Milan, Italy), corresponding to 0.9–1.2 × 10^7 colony forming units (CFU) per mL, 1.5–2 × 10^8 CFU/mL and 2.4–3.2 × 10^8 CFU/mL, for C. albicans, S. aureus and E. coli respectively. The cultures were then centrifuged at 4500 rpm for 10 min in a SL 8 centrifuge (TX-150 Rotor) (Thermo Scientific, Milan, Italy), and the cellular pellets were washed with PBS pH 5.4. Pelletized cultures were then suspended in 10 mL of PBS pH 5.4, then the suspensions were diluted to a final concentration of 10^4 CFU/mL. Aliquots of 100 µl (corresponding to 10^3 CFU) were seeded in each well of a 96-wells plate. 3 µl of TSB at pH 5.4 were added to each well to obtain a final 1.5% TSB concentration in the culture medium. Peptides were serially diluted in PBS pH 5.4 to C = 0.257, 0.128, and 0.064 mg/mL. ZnCl2 and CuCl2 solutions were added where requested to obtain a M:L ratio 0.9:1. 100 µl of the prepared peptides ± ZnCl2/CuCl2 solutions were then added to each well, obtaining the final 0.128, 0.064 and 0.032 mg/mL peptide concentrations in a total 0.2 mL volume. PBS alone and PBS + ZnCl2/CuCl2 solutions were included as controls. The plates were incubated at 37 °C on a platform rocker with slow stirring for 3 and 24 h. At the end of the incubation times, 100 µl aliquots were taken from each sample and diluted in PBS pH 5.4 to be seeded on TSA plates. Specifically, aliquots were diluted 1:10 at 3 h, and 1:200, 1:100,000 and 1:10 at 24 h, for C. albicans, E. coli, and S. aureus respectively. After incubation for 24 h at 37 °C, grown CFUs were enumerated. Samples were assayed in triplicate in two independent experiments. Student’s t-test was used for the evaluation of significance in biological tests; a p value ≤ 0.05 was considered significant.

[3] = peptide 0.032 mg/mL + CuCl2 (0.9:1), 24 h
[4] = peptide 0.032 mg/mL + ZnCl2 (0.9:1), 24 h
[5] = peptide 0.064 mg/mL + CuCl2 (0.9:1), 24 h
[6] = peptide 0.064 mg/mL + ZnCl2 (0.9:1), 24 h
[7] = peptide 0.128 mg/mL + ZnCl2 (0.9:1), 24 h
[8] = peptide alone 0.032 mg/mL, 24 h
[9] = peptide alone 0.064 mg/mL, 24 h
[10] = peptide alone 0.128 mg/mL, 24 h

CC[C@H](C)[C@H](NC(=O)[C@H](C)NC(=O)[C@@H](N)C(C)C)C(=O)N[C@@H](C)C(=O)N[C@@H](CC(C)C)C(=O)N[C@@H](CCCCN)C(=O)N[C@@H](C)C(=O)N[C@@H](C)C(=O)N[C@@H](Cc1c[nH]cn1)C(=O)N[C@@H](Cc1ccc(O)cc1)C(=O)N[C@@H](Cc1c[nH]cn1)C(=O)N[C@H](C(=O)N[C@@H](Cc1c[nH]cn1)C(=O)N[C@@H](CCCCN)C(=O)N[C@@H](CCC(=O)O)C(=O)O)[C@@H](C)O [WT, VAIALKAAHYHTHKE, reference compound] (H-VAIALKAAHYHTHKE-OH)
logβ [CuH2L] [1]: 33.77(4)
logβ [CuH3L] [1]: 40.77(4)
logβ [CuH4L] [1]: 46.97(3)
logβ [CuH5L] [1]: 52.07(3)
logβ [CuH6L] [1]: 56.40(6)
logβ [CuH-1L] [1]: 6.90(5)
logβ [CuH-3L] [1]: -14.19(5)
logβ [CuHL] [1]: 26.20(4)
logβ [CuL] [1]: 16.83(5)
logβ [ZnH2L] [1]: 28.59(5)
logβ [ZnH3L] [1]: 36.47(5)
logβ [ZnH4L] [1]: 43.55(3)
logβ [ZnH5L] [1]: 49.30(8)
logβ [ZnH-1L] [1]: -0.2(1)
logβ [ZnH-2L] [1]: -10.8(1)
logβ [ZnHL] [1]: 20.11(6)
logβ [ZnL] [1]: 10.35(8)
logK, line of [CuH2L] ([1]; Table S1): 7.00
logK, line of [CuH3L] ([1]; Table S1): 6.21
logK, line of [CuH4L] ([1]; Table S1): 5.09
logK, line of [CuH5L] ([1]; Table S1): 4.34
logK, line of [CuH-1L] ([1]; Table S1): 9.93
logK, line of [CuHL] ([1]; Table S1): 7.58
logK, line of [CuL] ([1]; Table S1): 9.37
logK, line of [ZnH2L] ([1]; Table S1): 7.87
logK, line of [ZnH3L] ([1]; Table S1): 7.08
logK, line of [ZnH4L] ([1]; Table S1): 5.75
logK, line of [ZnH-1L] ([1]; Table S1): 10.5
logK, line of [ZnH-2L] ([1]; Table S1): 10.7
logK, line of [ZnHL] ([1]; Table S1): 8.48
logK, line of [ZnL] ([1]; Table S1): 9.77
CFU decrease/increase with respect to untreated controls ([2]; peptide 0.032 mg/mL + CuCl2 (0.9:1), 3 h, listed as WT calcitermin): -38%
mean CFU number ± S.D. ([2]; peptide 0.032 mg/mL + CuCl2 (0.9:1), 3 h): 505 ± 26 CFU
CFU decrease/increase with respect to untreated controls [2, 3]: -21%
mean CFU number ± S.D. [2, 3]: 191 ± 23 CFU
CFU decrease/increase with respect to untreated controls ([2]; peptide 0.032 mg/mL + ZnCl2 (0.9:1), 3 h, listed as WT calcitermin): -38%
mean CFU number ± S.D. ([2]; peptide 0.032 mg/mL + ZnCl2 (0.9:1), 3 h): 499 ± 104 CFU
CFU decrease/increase with respect to untreated controls [2, 4]: -7%
mean CFU number ± S.D. [2, 4]: 224 ± 8 CFU
CFU decrease/increase with respect to untreated controls ([2]; peptide 0.064 mg/mL + CuCl2 (0.9:1), 3 h, listed as WT calcitermin): -56%
mean CFU number ± S.D. ([2]; peptide 0.064 mg/mL + CuCl2 (0.9:1), 3 h): 360 ± 97 CFU
CFU decrease/increase with respect to untreated controls [2, 5]: -11%
mean CFU number ± S.D. [2, 5]: 215 ± 17 CFU
CFU decrease/increase with respect to untreated controls ([2]; peptide 0.064 mg/mL + ZnCl2 (0.9:1), 3 h, listed as WT calcitermin): -55%
mean CFU number ± S.D. ([2]; peptide 0.064 mg/mL + ZnCl2 (0.9:1), 3 h): 368 ± 18 CFU
CFU decrease/increase with respect to untreated controls [2, 6]: +3%
mean CFU number ± S.D. [2, 6]: 249 ± 9 CFU
CFU decrease/increase with respect to untreated controls ([2]; peptide 0.128 mg/mL + CuCl2 (0.9:1), 3 h, listed as WT calcitermin): -91.1%
mean CFU number ± S.D. ([2]; peptide 0.128 mg/mL + CuCl2 (0.9:1), 3 h): 72 ± 44 CFU
CFU decrease/increase with respect to untreated controls ([2]; peptide 0.128 mg/mL + CuCl2 (0.9:1), 24 h, listed as WT calcitermin): -82%
mean CFU number ± S.D. ([2]; peptide 0.128 mg/mL + CuCl2 (0.9:1), 24 h): 42 ± 12 CFU
CFU decrease/increase with respect to untreated controls ([2]; peptide 0.128 mg/mL + ZnCl2 (0.9:1), 3 h, listed as WT calcitermin): -91%
mean CFU number ± S.D. ([2]; peptide 0.128 mg/mL + ZnCl2 (0.9:1), 3 h): 74 ± 17 CFU
CFU decrease/increase with respect to untreated controls [2, 7]: -8%
mean CFU number ± S.D. [2, 7]: 222 ± 16 CFU
CFU decrease/increase with respect to untreated controls ([2]; peptide alone 0.032 mg/mL, 3 h): -12%
mean CFU number ± S.D. ([2]; peptide alone 0.032 mg/mL, 3 h): 718 ± 138 CFU
CFU decrease/increase with respect to untreated controls [2, 8]: -7%
mean CFU number ± S.D. [2, 8]: 224 ± 21 CFU
CFU decrease/increase with respect to untreated controls ([2]; peptide alone 0.064 mg/mL, 3 h): -19%
mean CFU number ± S.D. ([2]; peptide alone 0.064 mg/mL, 3 h): 659 ± 139 CFU
CFU decrease/increase with respect to untreated controls [2, 9]: +14%
mean CFU number ± S.D. [2, 9]: 275 ± 16 CFU
CFU decrease/increase with respect to untreated controls ([2]; peptide alone 0.128 mg/mL, 3 h): +42%
mean CFU number ± S.D. ([2]; peptide alone 0.128 mg/mL, 3 h): 1155 ± 270 CFU
CFU decrease/increase with respect to untreated controls [2, 10]: -3%
mean CFU number ± S.D. [2, 10]: 233 ± 10 CFU
